Measured values published in patent publication US20190291112A1, “DROPLET MICROFLUIDICS FOR DRUG SCREENING” (University of Macau, priority 2018, published 2019).

What was measured:
[1] = test system: Jurkat cells; test: On chip drug screening assay (ethidium homodimer 1 staining); format: cell-based, human
Experimental: Jurkat E6.1 cells (ATCC® TIB-152™) and MDA-MB-231 cells (ATCC® HTB-26™) were used as models for suspended and adherent cancer cell lines respectively. Jurkat cell line was derived from human acute T cell leukemia, whereas MDA-MB-231 cell line was derived from human metastatic breast adenocarcinoma. On chip drug screening was performed using the PDMS-based microfluidic chip as described above. A 500 μL glass syringe (Hamilton, USA) and polytetrafluoroethylene (PTFE) tubings with appropriate bore (Cole Parmer, USA) was used to connect between the syringe pump (Harvard Apparatus PHD Ultra Syringe Pump, USA) and the microfluidic chip. Fluorinert® FC-40 (Sigma-Aldrich, USA) supplemented with 2% 008-Fluorosurfactant (Ran Biotechnologies, USA) was used as oil phase; relevant cell culture medium, supplemented with 1% (w/v) methyl cellulose (Sigma-Aldrich, USA) was used as aqueous phase. Cells treated with 0.1% dimethyl sulfoxide (DMSO) were used as negative control. […] Next, […], cell-drug mixtures were loaded into the tubing, consecutively segregated by oil phase at withdrawal rate of 200 μL/h by syringe pump. After loading all mixtures, the tubing was inserted into the microfluidic chip, which was back-flushed with oil phase at 500 μL/h by syringe pump. After that, the mixtures were infused at 25 μL/h by syringe pump. Finally, the inlet and outlet tubings were cut and sealed with Vaseline (Vaseline, USA). […] Brightfield and red fluorescence images (Ex. 531/40 nm, Em. 593/40 nm) were taken under 10× magnification (Life Technologies EVOS FL Imaging System, USA). […] For on chip assays, the number of cells was counted in brightfield and red fluorescence images from each well respectively.

[2] = test system: Jurkat cells; test: 96-well microtiter plate drug screening assay (Alamar Blue); format: cell-based, human; details: 96-well plate
Experimental: (§1) Jurkat E6.1 cells (ATCC® TIB-152™) and MDA-MB-231 cells (ATCC® HTB-26™) were used as models for suspended and adherent cancer cell lines respectively. Jurkat cell line was derived from human acute T cell leukemia, whereas MDA-MB-231 cell line was derived from human metastatic breast adenocarcinoma.
(§2) Microtiter plate drug screening assays were carried out on 96-well clear round flat-bottom plates (Corning, USA) or 384-well white square flat-bottom plates (Corning, USA).
(§3) First, 5.0×10^5 or 1.0×10^5 cells were seeded per well for 96-well and 384-well plates respectively. Drugs were diluted with Dulbecco's phosphate-buffered saline (DPBS) (Life Technologies, USA), and subsequently added to achieve final drug concentrations as indicated on the graphs. Afterwards, the plates were transferred to humidified incubator at 37° C. supplemented with 5% CO2 for 16-24 h incubation. Finally, Alamar Blue assay was used to measure cell viability. Fluorescence intensity (Ex. 560 nm, Em. 590 nm) using auto-cutoff was measured from bottom on plate reader (Molecular Devices SpectraMax MS Plate Reader, USA). Cells treated with 0.1% dimethyl sulfoxide (DMSO) were used as negative control, while no cells were added to blank control. All experiments were performed in triplicate for 96-well plates and in quadruplicates for 384-well relates.
(§4) For microliter plate assays, average relative fluorescence signal measured by plate reader from 6 reads of each well was used as raw data point. Cell viability was calculated as follows: […]
(§5) where Sample represented raw data points of each sample well, whereas DMSO control and Blank represented average raw data points of all DMSO control and Blank wells, respectively.

[3] = test system: MDA-MB-231 cells; test: as above; format: cell-based, human; details: 96-well plate
Experimental: as §1, §2, §3, §4, §5

[4] = test system: MDA-MB-231 cells; test: On chip drug screening assay (ethidium homodimer 1 staining); format: cell-based, human; details: for IC50: Homo sapiens
Experimental: as §1
On chip drug screening was performed using the PDMS-based microfluidic chip as described above. A 500 μL glass syringe (Hamilton, USA) and polytetrafluoroethylene (PTFE) tubings with appropriate bore (Cole Parmer, USA) was used to connect between the syringe pump (Harvard Apparatus PHD Ultra Syringe Pump, USA) and the microfluidic chip. Fluorinert® FC-40 (Sigma-Aldrich, USA) supplemented with 2% 008-Fluorosurfactant (Ran Biotechnologies, USA) was used as oil phase; relevant cell culture medium, supplemented with 1% (w/v) methyl cellulose (Sigma-Aldrich, USA) was used as aqueous phase. Cells treated with 0.1% dimethyl sulfoxide (DMSO) were used as negative control.
Briefly, cells at final concentrations of 1-2×10^6 cells per mL were aliquoted in 0.2 mL PCR tubes, then mixed with corresponding drugs and 2 μM ethidium homodimer 1 (Life Technologies, USA) by manual pipetting. Next, […], cell-drug mixtures were loaded into the tubing, consecutively segregated by oil phase at withdrawal rate of 200 μL/h by syringe pump. After loading all mixtures, the tubing was inserted into the microfluidic chip, which was back-flushed with oil phase at 500 μL/h by syringe pump. After that, the mixtures were infused at 25 μL/h by syringe pump. Finally, the inlet and outlet tubings were cut and sealed with Vaseline (Vaseline, USA). The chips were placed in 150 mm cell culture dish (Coming, USA) containing wet paper towels, and transferred to humidified incubator at 37° C. supplemented with 5% CO2 for 16-24 h incubation. Brightfield and red fluorescence images (Ex. 531/40 nm, Em. 593/40 nm) were taken under 10× magnification (Life Technologies EVOS FL Imaging System, USA).
For on chip assays, brightfield and red fluorescence images were initially processed by ImageJ v.1.50i, Cell counting was either performed manually or by Matlab v.R201.5a based on the workflow shown on FIG. 5B. Briefly, cells from brightfield and red fluorescence images were detected separately using a heuristic Hough Transformation model based on threshold implementation on circular diameter and pixel intensity. Next, each recognized cell was dissected into 10×10 pixels matrix for analysis of its pixel intensity. Subsequently, two layers of multi-radii analysis of pixel intensity around the center of each matrix distinguished signal from noise. Afterwards, cells were distinguished from noise based on the brightfield image, whereas cell viability was determined by signal intensity of corresponding red fluorescence image. Finally, positional information (defined by row: x, and column: y) and size (defined by radius: r) of discrete image matrix was used to classify each cell as “live” or “dead”. The total number of cells in each image corresponding to each droplet formation well on chip was summarized as a table in CSV format for calculation of cell viability. […]
For on chip assays, the number of cells was counted in brightfield and red fluorescence images from each well respectively. Cell viability was calculated as follows: […]
where Total cells and Dead cells referred to the total number of cells counted from brightfield and red fluorescence images, respectively. […]

[5] = test system: Jurkat cells; test: 384-well microtiter plate drug screening assay (Alamar Blue); format: cell-based, human; details: 384-well plate
Experimental: as §1, §2, §3, §4, §5

[6] = test system: MDA-MB-231 cells; test: as above; format: cell-based, human; details: 384-well plate
Experimental: as §1, §2, §3, §4, §5

[7] = test system: cancer cell lines; test: Carrier fluid and surfactant optimization, cell viability on chip; format: cell-based; details: surfactant, all tested concentrations
Text: Firstly, we optimized the carrier fluid or oil phase to assure cell viability on chip for a minimum of 7 days for cancer cell lines. Commercial oils including Fluorinert® series oils, e.g. fluorocarbon oils, silicone oil, and mineral oil in combination with different surfactants (either mixed with oil phase or aqueous phase) at various concentrations have been tested. Among these, Fluorinert® FC-40 supplemented with 2% 008-Fluorosurfactant by Ran Biotechnologies provided optimal properties in terms of viscosity, volatility and droplet stability. Fluorosurfactant was added to prevent droplets from coalescence and cross-contamination of droplet contents when they touched each other (FIG. 6A). In addition, fluorosurfactant-emulsified droplets prevented fluorescent dye from adsorbing to the hydrophobic PDMS walls of the channel (FIG. 6B) or migrating into the oil phase (FIGS. 6C and 6D), in order to maintain constant drug concentrations in droplets. […] Droplets containing red fluorescent dye were incubated at 37° C. for 15 h, but no trace of fluorescent dye was observed along the PDMS walls as the droplet shrank due to evaporation. […]

[8] = test system: cells; test: Time-lapse imaging of cells incubated with viability indicator dye; format: cell-based; details: 2 μM, within 48 h post-treatment
Experimental: Thirdly, different cell viability indicator dyes were tested for staining efficiency, indicator reliability and cytotoxicity on chip. Since the sample fluid was premixed before loading to the chip, we tested for different cell viability indicator dyes and variant concentrations to ensure that the indicator dye had no impact on cell viability, at least within the time frame of the drug susceptibility test. Eventually, ethidium homodimer 1 staining was adopted to indicate dead cells. Ethidium homodimer 1 is a cell-impermeable, high affinity nucleic acid stain emitting strong red fluorescence after binding to DNA. It gave strong red fluorescence after cells were treated with drug but not DMSO) (FIG. 12).

Molecule COc1cccc2c1C(=O)c1c(O)c3c(c(O)c1C2=O)C[C@@](O)(C(=O)CO)C[C@@H]3O[C@H]1C[C@H](N)[C@@H](O)[C@H](C)O1 [epirubicin] has an IC50 ([1]; Homo sapiens, 16-24 h) of 1000 to 2200 nM, an IC50 ([2]; Homo sapiens, 16-24 h) of 1000 to 2200 nM and an IC50 ([3]; Homo sapiens) of 600 nM. For the same molecule, the IC50 [4] was 5500 nM, the “cell viability leveled off” value ([4]; after reaching IC50) was “approximately 50%” and the IC50 ([5]; Homo sapiens, 16-24 h) was 1000 to 2200 nM. For the same molecule, the IC50 ([6]; Homo sapiens) was 500 nM.
With CCCCCCCCCCCCOS(=O)(=O)[O-].[Na+] [sodium dodecyl sulfate] the “effect on cell viability” value [7] was “compromised cell viability”.
In the case of O=C(CCCCCCC(=O)Nc1ccccc1)NO [vorinostat], the cell viability plateau ([1]; all doses tested) is reported as “above 50%”, the cell viability plateau ([2]; all doses tested) is reported as “above 50%” and the cell viability plateau [3] is reported as “above 50%”. For the same molecule, the IC50 [4] was 33300 nM, the cell viability plateau ([5]; all doses tested) was “above 50%” and the cell viability plateau [6] was “above 50%”.
Triton X-100 was tested, and the “effect on cell viability” value [7] was “compromised cell viability”.
With ethidium homodimer 1 the “effect on cell death and proliferation” value [8] was “did not affect cell death and proliferation”.
